For one experiment, the system named is HeLa. Briefly: Cytotoxicity against human HeLa cells after 48 hrs by MTT assay. The class given is functional, cell-based.
In the next experiment the test system is HL-60. Briefly: Cytotoxicity against human HL60 cells after 48 hrs by MTT assay. The class given is functional, cell-based. To be noted: HL-60, 48 h.
Experiment [1] addresses T1, Topoisomerase I (Bos taurus) (UniProt Q2HPH0).
T1 sequence (whole entry): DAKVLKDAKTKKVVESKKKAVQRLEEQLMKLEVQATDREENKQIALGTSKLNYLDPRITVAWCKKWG
Briefly: Inhibition of calf thymus topoisomerase-1 assessed as reduction in relaxation of pBR322 plasmid DNA at 100 uM measured after 30 mins by agarose gel electrophoresis.

Experiment [2] addresses DNA topoisomerase 2-alpha (Homo sapiens) (UniProt P11388). Briefly: Inhibition of human topoisomerase-2 assessed as reduction in relaxation of pBR322 plasmid DNA at 20 uM measured after 30 mins by agarose gel electrophoresis.
Another experiment has as its system K562. Kind of experiment: Cytotoxicity against human K562 cells after 48 hrs by MTT assay. The class given is functional, cell-based. The conditions noted are these: K562, 48 h.
The next experiment deals with A549. Kind of experiment: Cytotoxicity against human A549 cells after 48 hrs by MTT assay. Type of experiment: functional, cell-based. The conditions noted are these: A549, 48 h.
Experiment [3] addresses DNA topoisomerase 2-alpha (Homo sapiens) (UniProt P11388). Kind of experiment: Poison activity at human topoisomerase-2 assessed as linear DNA formation by measuring relaxation of supercoiled pBR322 plasmid DNA at 50 uM after 6 mins by agarose gel electrophoresis.
Experiment [4] deals with DNA topoisomerase 1 (Homo sapiens) (UniProt P11387). Kind of experiment: Inhibition of human topoisomerase-1 assessed as DNA intercalation by measuring relaxation of supercoiled pBR322 plasmid DNA after 6 mins by agarose gel electrophoresis.
Sequence of DNA topoisomerase 1 (Homo sapiens) (P11387 whole entry, looked up): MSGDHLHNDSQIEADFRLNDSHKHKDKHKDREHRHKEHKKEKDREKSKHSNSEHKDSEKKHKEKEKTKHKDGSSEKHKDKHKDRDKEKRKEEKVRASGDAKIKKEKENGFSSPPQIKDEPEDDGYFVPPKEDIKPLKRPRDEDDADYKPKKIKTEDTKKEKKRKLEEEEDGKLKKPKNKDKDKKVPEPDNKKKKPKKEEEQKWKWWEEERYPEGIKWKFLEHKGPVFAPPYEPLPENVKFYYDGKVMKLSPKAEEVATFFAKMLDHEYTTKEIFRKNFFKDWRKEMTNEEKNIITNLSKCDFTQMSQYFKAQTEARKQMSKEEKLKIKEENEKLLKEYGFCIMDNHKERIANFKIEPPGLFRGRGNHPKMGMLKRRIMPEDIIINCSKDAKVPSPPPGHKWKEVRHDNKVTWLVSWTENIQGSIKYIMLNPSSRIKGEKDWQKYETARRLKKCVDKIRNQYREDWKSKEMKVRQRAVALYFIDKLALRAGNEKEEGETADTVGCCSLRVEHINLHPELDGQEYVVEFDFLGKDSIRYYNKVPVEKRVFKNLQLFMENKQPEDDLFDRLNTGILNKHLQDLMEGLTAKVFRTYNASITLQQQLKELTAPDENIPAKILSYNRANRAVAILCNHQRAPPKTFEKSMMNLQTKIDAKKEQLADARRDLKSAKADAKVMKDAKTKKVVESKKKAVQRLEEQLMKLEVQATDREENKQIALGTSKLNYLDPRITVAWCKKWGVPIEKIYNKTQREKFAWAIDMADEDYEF
For experiment [5], the target named is DNA topoisomerase 2-alpha (Homo sapiens) (UniProt P11388). Kind of experiment: Inhibition of human topoisomerase-2 assessed as DNA intercalation by measuring relaxation of supercoiled pBR322 plasmid DNA at 0.3 to 2.5 uM after 6 mins by agarose gel electrophoresis.
Sequence of DNA topoisomerase 2-alpha (Homo sapiens) (P11388 whole entry): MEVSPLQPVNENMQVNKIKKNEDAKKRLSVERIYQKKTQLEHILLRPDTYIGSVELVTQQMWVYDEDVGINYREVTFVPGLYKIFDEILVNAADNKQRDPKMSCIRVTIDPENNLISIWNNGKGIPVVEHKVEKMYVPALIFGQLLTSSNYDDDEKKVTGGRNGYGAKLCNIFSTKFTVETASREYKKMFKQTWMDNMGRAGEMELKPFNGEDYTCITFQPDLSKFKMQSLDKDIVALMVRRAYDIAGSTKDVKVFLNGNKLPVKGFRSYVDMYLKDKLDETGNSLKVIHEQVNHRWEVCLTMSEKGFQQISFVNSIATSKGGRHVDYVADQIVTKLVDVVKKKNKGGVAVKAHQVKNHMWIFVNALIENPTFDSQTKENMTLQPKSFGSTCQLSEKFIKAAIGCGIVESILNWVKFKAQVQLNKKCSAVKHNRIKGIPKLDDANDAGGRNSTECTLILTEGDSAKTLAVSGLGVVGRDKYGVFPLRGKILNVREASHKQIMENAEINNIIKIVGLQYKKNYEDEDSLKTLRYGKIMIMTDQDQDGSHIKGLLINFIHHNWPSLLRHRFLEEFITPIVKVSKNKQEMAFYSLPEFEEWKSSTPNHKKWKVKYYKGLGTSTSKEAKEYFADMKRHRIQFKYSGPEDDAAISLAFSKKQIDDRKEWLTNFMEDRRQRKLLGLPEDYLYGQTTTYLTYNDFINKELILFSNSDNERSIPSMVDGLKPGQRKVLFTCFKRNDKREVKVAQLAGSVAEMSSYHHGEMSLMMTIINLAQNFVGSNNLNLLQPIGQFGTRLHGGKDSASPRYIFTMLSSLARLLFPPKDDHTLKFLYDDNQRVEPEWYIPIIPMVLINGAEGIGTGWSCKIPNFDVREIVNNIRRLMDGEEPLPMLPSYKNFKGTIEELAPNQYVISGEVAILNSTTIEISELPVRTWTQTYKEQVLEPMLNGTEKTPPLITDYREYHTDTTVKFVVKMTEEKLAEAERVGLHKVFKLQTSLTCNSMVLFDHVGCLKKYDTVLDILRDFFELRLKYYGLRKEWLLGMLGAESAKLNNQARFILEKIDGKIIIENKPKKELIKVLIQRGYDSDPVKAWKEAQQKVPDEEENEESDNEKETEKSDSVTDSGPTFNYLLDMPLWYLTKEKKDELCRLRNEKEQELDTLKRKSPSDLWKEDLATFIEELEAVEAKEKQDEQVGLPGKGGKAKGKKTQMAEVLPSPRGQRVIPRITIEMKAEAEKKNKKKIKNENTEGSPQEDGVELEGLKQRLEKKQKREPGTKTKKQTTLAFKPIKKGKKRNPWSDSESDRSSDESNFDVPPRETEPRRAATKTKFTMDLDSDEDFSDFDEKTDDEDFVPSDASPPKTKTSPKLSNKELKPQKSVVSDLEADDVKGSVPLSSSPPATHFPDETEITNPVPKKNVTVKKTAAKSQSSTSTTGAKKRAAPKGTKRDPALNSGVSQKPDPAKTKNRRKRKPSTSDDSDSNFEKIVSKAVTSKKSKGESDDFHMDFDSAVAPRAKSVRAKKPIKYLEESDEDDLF
For experiment [6] the target is unchanged. Briefly: Inhibition of human topoisomerase-2 assessed as reduction in relaxation of pBR322 plasmid DNA at 10 uM measured after 30 mins by agarose gel electrophoresis.

Experimental findings from ChEMBL document CHEMBL4184309, “Synthesis and biological evaluation of novel carbazole-rhodanine conjugates as topoisomerase II inhibitors” (Bioorg Med Chem Lett, 2018) are described below.

Activity calls are given as the source filed them. No cut-off for these calls is given here. Bounds are passed on as bounds.

As for `O=C(O)CN1C(=O)/C(=C/c2ccc3c(c2)c2ccccc2n3Cc2ccc(F)cc2)SC1=S`, the IC50 was over 50 µM with HeLa, 8.57 µM in the experiment with HL-60, 19.1 µM in the experiment with K562 and over 50 µM with A549. For the same compound, the inhibition entry in experiment [1] was “inactive”. Also, the inhibition result in experiment [2] is “Active”.

Turning to `N#Cc1ccc(Cn2c3ccccc3c3cc(/C=C4\SC(=S)N(CC(=O)O)C4=O)ccc32)cc1`, the IC50 with HeLa is 5.06 µM; in the experiment with HL-60, 0.43 µM; in the experiment with K562 it was 1.85 µM; with A549, 2.18 µM. Further, the outcome in experiment [3] was inactive. Besides, the inhibition entry in experiment [1] was “inactive”. Moreover, the inhibition entry in experiment [2] was “Active”. For the same compound, the inhibition entry in [4] was “Dose-dependent effect”.

Consider `Cc1ccc(Cn2c3ccccc3c3cc(/C=C4\SC(=S)N(CC(=O)O)C4=O)ccc32)cc1`, for which the IC50 is over 50 µM with HeLa, 17.8 µM in the experiment with HL-60, 29.6 µM in the experiment with K562 and over 50 µM in the experiment with A549. Besides, the inhibition result in [1] and in experiment [2] was “inactive” each time.

Regarding `O=C(O)CN1C(=O)/C(=C/c2ccc3c(c2)c2ccccc2n3Cc2cccc(F)c2)SC1=S`, the IC50 in the experiment on HeLa is over 50 µM; in the experiment on HL-60, 8.29 µM; in the experiment on K562, 12.8 µM; in the experiment on A549 it was 19.8 µM. The inhibition result in experiment [1] and in [2] was “inactive” each time.

Consider `O=C(O)CN1C(=O)/C(=C/c2ccc3c(c2)c2ccccc2n3Cc2ccc(F)cc2F)SC1=S`, for which the IC50 with HeLa is over 50 µM; with HL-60, 3.84 µM; in the experiment with K562, 12.6 µM; in the experiment on A549, 22.6 µM. The inhibition entry in experiment [1] and in experiment [2] was “inactive” throughout.

For `O=C(O)CN1C(=O)/C(=C/c2ccc3c(c2)c2ccccc2n3Cc2ccc(F)c(F)c2)SC1=S`, the half-inhibitory concentration (IC50) in the experiment on HeLa is 15.1 µM; in the experiment on HL-60, 4.17 µM; with K562, 7.31 µM; in the experiment with A549, 12.4 µM. The inhibition entry in experiment [1] is “inactive”. For the same compound, the inhibition result in experiment [2] was “Active”.

As to `O=C(O)CN1C(=O)/C(=C/c2ccc3c(c2)c2ccccc2n3Cc2ccccc2)SC1=S`, the IC50 is over 50 µM in the experiment with HeLa, 14.6 µM with HL-60, 21.4 µM in the experiment on K562 and 32.2 µM with A549. In addition, the inhibition result in experiment [1] and in [2] was “inactive” in each case.

With `O=C(O)CN1C(=O)/C(=C/c2ccc3c(c2)c2ccccc2n3Cc2ccc(C(F)(F)F)cc2)SC1=S`, the IC50 in the experiment with HeLa was 8.2 µM; in the experiment on HL-60 it was 0.71 µM; in the experiment on K562, 2.16 µM; in the experiment with A549, 3.4 µM. Also, the result in experiment [3] was inactive. Also, the inhibition entry in experiment [1] was “inactive”. Also, the inhibition entry in experiment [2] is “Active”. Moreover, the inhibition entry in experiment [4] is “Dose-dependent effect”.

Turning to `COc1cc([C@@H]2c3cc4c(cc3[C@@H](O[C@@H]3O[C@@H]5CO[C@@H](C)O[C@H]5[C@H](O)[C@H]3O)[C@H]3COC(=O)[C@H]23)OCO4)cc(OC)c1O` [ETOPOSIDE], the IC50 in the experiment with HeLa came out at 32 µM. The inhibition entry in [2] was “Active”.

As for `CC[n+]1c(-c2ccccc2)c2cc(N)ccc2c2ccc(N)cc21`, in [5], the inhibition entry is “Active”.

`CC[C@@]1(O)C(=O)OCc2c1cc1n(c2=O)Cc2cc3ccccc3nc2-1`: the inhibition result in [1] is “Active”.

As to `O=C(O)CN1C(=O)/C(=C/c2ccc3c(c2)c2ccccc2n3Cc2ccc(Br)cc2)SC1=S`, the IC50 with HeLa is over 50 µM; in the experiment with HL-60, 12.7 µM; in the experiment with K562 it was 28 µM; in the experiment on A549, over 50 µM. The inhibition result in experiment [1] and in experiment [2] was “inactive” each time.

For the compound `O=C(O)CN1C(=O)/C(=C/c2ccc3c(c2)c2ccccc2n3Cc2ccccc2F)SC1=S`, the IC50 with HeLa turned out to be 21.3 µM; with HL-60, 1.82 µM; with K562 it was 11.8 µM; in the experiment on A549 it was 13.6 µM. The inhibition result in experiment [1] and in [2] was “inactive” in each case.

With `O=C(O)CN1C(=O)/C(=C/c2ccc3c(c2)c2ccccc2n3Cc2ccc([N+](=O)[O-])cc2)SC1=S`, the inhibition entry in [6] and in experiment [2] was “Active” throughout. For the same compound, the IC50 in the experiment with HeLa came out at 7.51 µM; in the experiment with HL-60 it was 0.96 µM; in the experiment with K562 it was 2.7 µM; in the experiment on A549, 3.94 µM. In [1], the inhibition result was “inactive”.

Consider `O=C(O)CN1C(=O)/C(=C/c2ccc3c(c2)c2ccccc2n3Cc2ccc(Cl)cc2)SC1=S`, for which the IC50 worked out at 28.3 µM in the experiment with HeLa, 4.86 µM in the experiment on HL-60, 13.4 µM in the experiment on K562 and 16.2 µM with A549. The inhibition result in experiment [1] and in [2] was “inactive” throughout.

Consider `O=C(O)CN1C(=O)/C(=C/c2ccc3c(c2)c2ccccc2n3Cc2ccc(Br)cc2F)SC1=S`, for which the IC50 stood at 11.7 µM with HeLa, 3.51 µM with HL-60, 6.92 µM with K562 and 9.44 µM in the experiment on A549. The inhibition result in experiment [1] is “inactive”. Besides, the inhibition entry in experiment [2] is “Active”.
